For data set [1], the system named is Jurkat (leukemia) and HCT-116 (colon tumor). The data set is described as follows: In vitro dose scheduling studies, apoptosis by FACS (annexinV-FITC/PI). The format is cell-based, human. As to the method: Pharmacokinetic data (pk) data from human patients was used to model various dose regimens using human cell lines: Jurkat (leukemia) and HCT-116 (colon tumor). The human cell lines were treated with or without a HDAC inhibitor (e.g. Compound 1). Cells were cultured, treated according to different regimens and concentrations to model the corresponding dosing regimen (continuous low dose: 0.2 μM; intravenous (IV): 2 μM 3 hours+0.3 μM 4 hours; oral BID: 0.4 μM 4 hours×2, 4 hours apart; oral consecutive BID: 0.4 μM 8 hours; oral consecutive TID: 0.266 μM 12 hours), then washed out to mimic the human in vivo PK.
Cell viability was examined by an analysis of apoptosis using fluorescence activated cell sorting (FACS) after staining with annexinV-FITC and propidium iodide (PI). In brief, after treatment, 1×10^6 cells were washed with phosphate buffered saline (PBS) and then labeled with annexinV-FITC/PI in the binding buffer according to manufacturer's protocol. Fluorescent signals of FITC and PI were detected at 518 nm and 620 nm, respectively, on a Beckman Coulter FACS instrument (Fullerton, Calif.). The data were analyzed with Flow Jo software (Tree Star, Ashland, Oreg.).
On the technique in general: A flow cytometer gives signals particle by particle.

Data set [2] concerns Neuroblastoma cell lines and patient-derived primary neuroblastoma cultures. The data set is described as follows: Neuroblastoma cell viability, calcein AM assay. The format is cell-based. The following applies: 48 hours, viability by calcein AM. How it is done:
Neuroblastoma cell lines and patient-derived primary neuroblastoma cultures were treated with bortezomib, Compound 1 alone or a combination of both agents for 48 hours. Cells were also treated with HDAC inhibitors vorinostat, sodium butyrate, and valproic acid and viability was assessed by calcein AM assays. mRNA from treated cells was evaluated at 6 and 24 hours using U133+ mRNA expression arrays and Ingenuity analysis. Dichlorofluorescein (DCF) was used to measure reactive oxygen species (ROS). Cell viability assays were repeated in the presence of N-acetylcysteine (NAC). Western blot evaluated caspase-3 and PARP cleavage. Nude mice were injected with 10^7 SMS-KCNR cells subcutaneously and treated with daily doses of 0.5 mg/kg bortezomib, 12.5 mg/kg Compound 1, or a combination of the two agents. Tumors were measured and imaged twice per week.

The test system of data set [3] is RAD51. Kind of data set: Jurkat cells, pretreatment and bendamustine-induced RAD51 upregulation. The data set is classed as cell-based, human. The following applies: Jurkat cells pre-treated one day with 0.2 uM Compound 1, then 20 uM bendamustine for 1 day, FIG. 9. As to the method: Cells were pre-treated one day is advance with 0.2 uM HDAC inhibitor (i.e., Compound 1), then 20 uM bendamustine was added for 1 day.

Data set [4] concerns RAD51. Kind of data set: Western blot of DNA repair proteins in multiple myeloma cell lines. Particulars: FIG. 6A. The data set is classed as cell-based. An excerpt: RAD51 represents an essential component of homologous recombination (HR), one of the two major DNA double-strand break (DSB) repair pathways in cells; the second pathway, non-homologous end joining (NHEJ), represented here by two of its components Ku-70 and DNA-PKcs, is not affected by these treatments. […] As explained supra, the synergistic anti-multiple myeloma activity of the bendamustine-Compound 1 combination could be due to a reduction in RAD51 levels caused by the HDAC inhibitor (i.e., Compound 1).
Background: A western blot detects proteins with antibodies after separation by electrophoresis.

Data set [5] is described as follows: Phase 1 trial of oral capsule Compound 1, HCl: safety, tolerability, pharmacodynamics. The format is in vivo. An excerpt: (§1) This is a Phase 1 dose-escalation study of the safety, pharmacokinetics, and pharmacodynamics of Compound 1, HCl administered orally in patients with advanced cancer.
This study seeks to determine the highest dose of Compound 1, HCl that can be taken without causing serious side effects in patients with advanced cancer. The study will look at safety of the study drug (Compound 1, HCl) and whether the treatment schedule is tolerated by patients.
(§2) In the Phase 1 dose escalation study, up to 7 cohorts will receive Compound 1, HCl orally at doses starting at 30 mg/m^2, approximately 4-6 hours apart, up to 90 mg/m^2, 2 or 3 times a day according to 3 different dosing schedules within 28 day cycle (5 days of dosing followed by 2 days of no dosing; 5 days of dosing followed by 9 days of no dosing; 7 days of dosing followed by 7 days of no dosing) until the maximum tolerated dose is reached.
Patients should satisfy the following criteria: At least 18 years of age; histologically confirmed, measurable solid tumor, non-Hodgkin's lymphoma, Hodgkin's disease, chronic lymphocytic leukemia, or multiple myeloma that has relapsed after standard therapy or for which no standard therapy exists; ability to swallow oral capsules without difficulty; estimated life expectancy>12 weeks; ECOG performance status≦2; Creatinine≦1.5×institutional upper limit of normal (ULN); Total bilirubin≦1.5×institutional ULN (unless elevated from documented Gilbert's syndrome); AST and ALT≦2.5×institutional ULN (≦5×institutional ULN in the presence of liver metastases); Platelet count≧100,000/μL; ANC≧1500/μL; Hgb≧9.0 g/dL; Patients with previously treated, stable, asymptomatic brain metastases who are not on corticosteroids are eligible; Willing and able to sign a written informed consent.

Data set [6] in a line: Phase 1 trial of oral capsule Compound 1, HCl: plasma pharmacokinetics. The data set is classed as in vivo. The following applies: human, 30 mg/m^2 dose of capsule formulation of Example 2, solid tumor cancer patients, mean±SE, read-out: AUC0-4h for plasma concentrations. As to the method:
as §1, §2
The following pharmacokinetic information was determined for patients that received a […] dose of the capsule formulation of Example 2. Solid tumor cancer patients received a […] dose of the capsule formulation of Example 2. Blood samples that were collected for up to 24 hours post-dosing were analyzed for pharmacokinetic evaluations. Plasma was harvested by centrifugation and stored at approximately −70° C. until analysis. Concentrations of Compound 1 were determined in plasma using HPLC gradient system (Hewlett Packard model 1100) was configured with Sciex API 3000 and a reversed phase column (Phenomenex, Luna C18, 3.0 μm, 50×2 mm i.d.). The mobile phase gradient consisted of 0.2% formic acid in water (A) and 0.2% formic acid in methanol (B). […]

Data set [7] has as its system H929 (Multiple Myeloma). Kind of data set: Tumor growth inhibition study, H929 bearing female SCID mice. The data set is classed as in vivo. The following applies: PCI-24781 12 mg/kg BID IP 5 d/wk; bendamustine 5.0 mg/kg qd IP 2 d/wk; FIG. 7. As to the method: Mice inoculated subcutaneously in the right hind flank with H929 MM cells at a density of 1×10^7 cells in a volume of 100 μL/mouse 4 groups of animals (n=8/group) received vehicle (BID, IP, 5 d/wk), PCI-24781 alone (12 mg/kg BID, IP, 5 d/wk), bendamustine alone 5.0 mg/kg (qd, IP, 2 d/wk Tu, Th) or the combination. Body weights and tumor measurements were collected a minimum of 2 times each week for all animals. Blood and tumor samples were collected at study termination for pharmacodynamic evaluations.

A short description of data set [8]: Clinical PK of Compound 1 in solution form, single oral dose and 2-hour IV infusion doses. Particulars: human, in vivo, humans. How it is done: In clinical trials involving humans with cancer, Compound 1 in solution form was administered at 2 mg/kg as a single oral dose and as multiple 2-hour IV infusion doses.

By IC50 is commonly meant the concentration that inhibits the measured activity by half. A word on the bioavailability: it is the share of a dose that reaches the circulation, judged against a reference dose that is usually intravenous. Lower therefore signals little systemic uptake. With `CN(C)Cc1c(C(=O)NCCOc2ccc(C(=O)NO)cc2)oc2ccccc12` [Compound 1, N-hydroxy-4-{2-[3-(N,N-dimethylaminomethyl)benzofuran-2-ylcarbonylamino]ethoxy}-benzamide], the “efficacy of modelled oral tid dosing versus bid dosing” value in data set [1] (0.266 μM 12 hours versus 0.4 μM 8 hours) is “better”. Further, in data set [1] (0.4 μM 8 hours versus 0.4 μM 4 hours×2), the “efficacy of modelled oral bid dosing given consecutively (4 hours apart) versus with a break in between” value is recorded as “more efficacious”. Also, the “efficacy (tumor cell death) of modelled dose schedule” value in data set [1] (continuous exposure for at least 8 hours) is “good efficacy”. In addition, in data set [2], the IC50 is < 200 nM. Further, the “bendamustine-induced RAD51 upregulation” value in data set [3] is on record as “suppressed bendamustine-induced RAD51 upregulation”. Moreover, in data set [4], the “NHEJ components Ku-70 and DNA-PKcs” value is given as “not affected”. Further, in data set [4], the RAD51 expression result is recorded as “downregulation of RAD51”. In data set [5] (daily exposure range of 0.63 to 2.15 μM·h), the “average grade of thrombocytopenia, TID versus BID consecutive dosing” value is given as “higher average grade of thrombocytopenia”. In addition, the therapeutic effect entry in data set [5] (immediate release capsule, 2 or 3 consecutive doses 4 to 6 hours apart on days of dosing) was “therapeutic effect of Compound 1 was achieved”. Besides, the “incidence of Grade 4 thrombocytopenia (platelet count <25,000 per mm^2)” value in data set [5] (solid tumor and lymphoma patients, cycles of 7 days oral dosing followed by 7 days without dosing) was “limited incidence of Grade 4 thrombocytopenia”. In data set [6], the AUC(0-t) is 0.272 ± 0.051 µM·h. Further, the tumor growth inhibition in data set [7] is on record as 73%. In addition, the bioavailability in data set [8] (2 mg/kg, administered as immediate release capsules or an oral solution) is ~27%; in data set [8] (2 mg/kg solution, from oral and IV AUC0-∞), ~27%.

For the compound `Cn1c(CCCC(=O)O)nc2cc(N(CCCl)CCCl)ccc21` [bendamustine], the tumor growth inhibition in data set [7] is reported as 79%.

On to `CC(C)C[C@H](NC(=O)[C@H](Cc1ccccc1)NC(=O)c1cnccn1)B(O)O` [bortezomib, reference compound], for which the IC50 in data set [2] is < 50 nM.

The values are drawn from patent US9492423B2, “Formulations of histone deacetylase inhibitor in combination with bendamustine and uses thereof” (PHARMACYCLICS LLC, priority 2011, dated 2016).
